Test results published in patent publication US20240010726A1, “LFA-1 SIGNALLING MEDIATOR FOR USE IN CANCER THERAPY” (Universität Basel, priority 2020, published 2024).

Legend:
[1] = tested on: REP T cells; assay: FAK phosphorylation and CD107a degranulation of REP T cells co-incubated with T2 target cells; assay type: cell-based, human; conditions: pulsed T2 target cells; 1.2 mM Mg^2+ ± BIRT377 50 μM
Procedure: FIG. 3: Magnesium regulates LFA-1 mediated T cell activation and cytotoxicity as well BiTE- and CAR T-cell functionality. (a) Glycolytic switch of murine WT and LFA-1^−/− CTLs upon injection of anti-CD3/28 Ab in medium containing 1.2 mM Mg^2+ and 0 mM Mg^2+, presented as quantification of summarized data with n=4 mice. (b) Calcium flux in WT and LFA-1^−/− Jurkat T cells stimulated with anti-CD3 Ab in 1.2 mM and 0 mM Mg^2+ medium, respectively. Cells were loaded with Fluo4, and signal intensity as recorded by plate reader, was normalized to unstimulated baseline values. […] Quantified results of n=3 mice with 3 technical replicates each. (d) Caspase-3 activity in EL4 target cells after co-culture with murine WT and LFA-1^−/− CTLs under the conditions as in (c) for 4 hours, in presence of 10 μg/ml PHA. The effector to target cell ratio was 3:1. Results are quantified of n=3 mice with 3 technical replicates each. (e) Representative CD11a (LFA-1) surface expression on human naïve and EM CD8 T cells, PHA T cell blasts and REP T cells, assessed by flow cytometry. Flow cytometry-based assessment of inactivate LFA-1 with bent conformation (f), extended conformation with β2 leg extension (g), LFA-1 with open head-piece (h), phosphorylation of FAK, expression of degranulation marker CD107a (j) on REP T cells after co-incubation with T2 target cells (pulsed with 10^−8 M 9c peptide) in same condition as in (c). The effector to target cell ratio was 1:1. Data is presented as quantified results of n=5 healthy donors (f, g, h), n=3 healthy donors with 2 technical replicates each or n=1 healthy donor with 4 technical replicates (j). […] Data is presented as quantified results of n=1 healthy donor with 4 technical replicates. […] Cytotoxicity is reported as total area under the curve of the fluorescence driven by incorporation of cytotoxic green reagent in dead target cells (green area per μm^2). […] (p) Abundance of IFNγ in cell culture supernatants corresponding to the conditions depicted in (o) at 24 hours was determined by ELISA (n=8, 3 independent experiments). […]

[2] = tested on: T2 target cells; assay type: cell-based, human; conditions: 45 min; E:T 1:1; 1.2 mM Mg^2+ ± BIRT377 50 μM
[3] = tested on: human PHA T cell blasts; assay: Degranulation of PHA T cell blasts ± BIRT377; assay type: cell-based; conditions: ±BIRT377 50 μM
[4] = tested on: murine WT and LFA-1^−/− CTLs; assay: Degranulation marker CD107a on murine WT and LFA-1−/− CTLs; assay type: cell-based; conditions: 8 h anti-CD3/anti-CD28 Ab; 1.2 mM Mg^2+ ± BIRT377 50 μM
[5] = tested on: human PHA T cell blasts; assay: Glycolytic switch of PHA T cell blasts ± BIRT377; assay type: cell-based; conditions: ±BIRT377 50 μM
[6] = tested on: Ramos target cells; assay: Co-culture assay with Blinatumomab, caspase-3 activity in Ramos target cells; assay type: cell-based, human; conditions: PHA-blasts, 3.5 h co-culture; reported therapeutic range 230-620 pg ml^−1; varying Mg^2+
Procedure: FIG. 3: Magnesium regulates LFA-1 mediated T cell activation and cytotoxicity as well BiTE- and CAR T-cell functionality. (a) Glycolytic switch of murine WT and LFA-1^−/− CTLs upon injection of anti-CD3/28 Ab in medium containing 1.2 mM Mg^2+ and 0 mM Mg^2+, presented as quantification of summarized data with n=4 mice. (b) Calcium flux in WT and LFA-1^−/− Jurkat T cells stimulated with anti-CD3 Ab in 1.2 mM and 0 mM Mg^2+ medium, respectively. Cells were loaded with Fluo4, and signal intensity as recorded by plate reader, was normalized to unstimulated baseline values. […] Quantified results of n=3 mice with 3 technical replicates each. […] Results are quantified of n=3 mice with 3 technical replicates each. (e) Representative CD11a (LFA-1) surface expression on human naïve and EM CD8 T cells, PHA T cell blasts and REP T cells, assessed by flow cytometry. […] Data is presented as quantified results of n=5 healthy donors (f, g, h), n=3 healthy donors with 2 technical replicates each or n=1 healthy donor with 4 technical replicates (j). […] Data is presented as quantified results of n=1 healthy donor with 4 technical replicates. […] Cytotoxicity is reported as total area under the curve of the fluorescence driven by incorporation of cytotoxic green reagent in dead target cells (green area per μm^2). […]

Substance | Degranulation (CD107a) of REP T cells [1] | Target cell killing by REP T cells (caspase-3 activity in T2 target cells) [2] | Degranulation of PHA T cell blasts [3] | CD107a degranulation of LFA-1^−/− CTLs [4] | CD107a degranulation of WT CTLs [4] | Glycolytic switch of PHA T cell blasts [5] | Blinatumomab-mediated cytotoxicity (caspase-3 activity in Ramos target cells) [6]
BIRT377 [reference compound] | reduced degranulation | reduced | decreased degranulation | unaffected | reduced CTL degranulation | impaired glycolytic switching | 
Blinatumomab: CD3/CD19 bispecific antibody engaging T cells to bind and eliminate CD19-positive cells |  |  |  |  |  |  | strongly dependent on availability of Mg^2+
